Patent US20250034196A1, “ESTER DERIVATIVES OF N4-HYDROXYCYTIDINE AND USE THEREOF” (priority 2021, published 2025)

Experiments:
in vitro [1] = type: in vitro ADME; settings: plasma
Protocol: (§1) Preparation of Solutions: Stock solution (10 mM) of each of test compounds was prepared in DMSO. The stock solution for each compound was then diluted into 100 μM with acetonitrile.
Plasma Incubations: Plasma incubations were conducted in duplicate in 96-well plate at 37° C. Plasma was prewarmed in a total volume of 198 μL for 5 min at 37° C., then added 2 μL of 100 μM test compound into an incubation well containing plasma, pipette-mixed to achieve a homogenous suspension and immediately transferred 20 μL incubate as a 0 min sample to wells in a “Quenching” plate followed by adding 200 μL of acetonitrile with metolazone as internal standard (IS) and pipette-mixing. At 2, 5, 60, and 90 min, pipette-mixed the incubate and serially transfer samples of 20 μL incubate per time point to wells in a separate “Quenching” plate followed by adding 200 μL of acetonitrile with metolazone as IS and pipette-mixing.
(§2) Sample Analysis: The 96-well plate was centrifuged at 6000 g for 10 min. The supernatant was injected onto the LC-MS/MS system for analysis.

in vitro [2] = type: in vitro ADME; settings: microsomes, pH 7.4
Protocol: as §1
(§3) Microsome Incubations: Incubation mixtures were prepared in a total volume of 200 μL with final component concentrations as follows: 0.1M PBS (pH 7.4), NADPH (2 mM) and liver microsomes (0.2 mg/mL) as well as test compound (1 μM) or Molnupiravir (1 μM) as a positive control, wherein the NADPH was added after a 5-min preincubation of all other components at 37° C. Pipette-mixed to achieve a homogenous suspension and immediately transferred 20 μL incubate as a 0 min sample to wells in a “Quenching” plate followed by adding 200 μL of acetonitrile with metolazone as IS and pipette-mixing. At 2, 5, 10, and 45 min, pipette-mixed the incubate and serially transfer samples of 20 μL incubate per time point to wells in a separate “Quenching” plate followed by adding 200 μL of acetonitrile with metolazone as IS and pipette-mixing.
as §2

in vivo = experiment: in vivo; parameters: species or system Beagle Dogs; settings: dog, po; for Cmax: Cmax of EX-2/CH2101; for Tmax: Tmax of EX-2/CH2101; for AUC(0-t): AUClast of EX-2/CH2101; for concentration at 0.25 hr / concentration at 0.5 hr / concentration at 1 hr / concentration at 0.083 hr: Plasma concentration of EX-2/CH2101
Protocol: Example 174: Pharmacokinetic Study of EX-2 (CH2101), Molnupiravir (CH2017) and its Metabolite NHC (CH2018) Following a Single PO Administration of EX-2 (CH2101) or Molnupiravir (CH2017) in Male and Female Beagle Dogs
Both test compounds were prepared in 1% methyl cellulose (400 cps, SIGMA, SLCF9694) solution in purified water.
A total of 6 male+6 female Beagle Dogs, approximately 7-13 kg of bodyweight, were originally purchased from Marshall Biotechnology Co., Ltd. The animals were fasted overnight prior to dosing and food was re-provided after 4 hours post dosing.
The animals were restrained manually, and approximately 1 mL of blood at each time point was collected into pre-cooled EDTA-K2 tubes via cephalic or saphenous veins. Blood samples were centrifuged at 4° C. (4000 rpm. 5 min) to obtain plasma within 30 min after sample collection. All samples were stored at approximately −80° C. until analysis. The backup samples will be discarded after the in vivo experiment has been completed for two months unless requested.

Microsome stability = type: in vitro ADME, Monkey; settings: monkey, microsomes, pH 7.4
Protocol: as §1, §3, §2

[3] = system: SARS-CoV-2, Hongkong strain; type: in vivo, K18 hACE2 transgenic mice
in vitro [4] = settings: African green monkey

CC(=O)ONc1ccn([C@@H]2O[C@H](CO)[C@@H](O)[C@H]2O)c(=O)n1 [EX-2]
half-life at 1 µM (in vitro [1]; dog): 79.1 min
half-life at 1 µM (in vitro [1]; human): 11.6 min
half-life at 1 µM (in vitro [1]; monkey): 29.3 min
half-life at 1 µM (in vitro [1]; mouse): 7.4 min
half-life at 1 µM (in vitro [1]; rat): 87.8 min
half-life at 1 µM (in vitro [2]; dog): 76.3 min
half-life at 1 µM (in vitro [2]; human): 33.5 min
half-life at 1 µM (in vitro [2]; mouse): 16.2 min
half-life at 1 µM (in vitro [2]; rat): 288 min
Cmax (in vivo; both sexes, Beagle, 20 mg/kg): 12.8 ng/mL
Tmax (in vivo; both sexes, Beagle, 20 mg/kg): 15 min
AUC(0-t) (in vivo; both sexes, beagle, 10 mg/kg): 5.07 ng·h/mL
Cmax (in vivo; both sexes, beagle, 10 mg/kg): 15.5 ng/mL
concentration at 0.25 hr (in vivo; both sexes, beagle, 10 mg/kg): 16 ng/mL
concentration at 0.5 hr (in vivo; both sexes, beagle, 10 mg/kg): 10.7 ng/mL
concentration at 1 hr (in vivo; both sexes, beagle, 10 mg/kg): 12.2 ng/mL
Tmax (in vivo; both sexes, beagle, 10 mg/kg): 26.3 min
AUC(0-t) (in vivo; both sexes, beagle, 20 mg/kg): 5.43 ng·h/mL
concentration at 0.083 hr (in vivo; both sexes, beagle, 20 mg/kg): 11.2 ng/mL
concentration at 0.25 hr (in vivo; both sexes, beagle, 20 mg/kg): 12.8 ng/mL
concentration at 0.5 hr (in vivo; both sexes, beagle, 20 mg/kg): 10.5 ng/mL
concentration at 1 hr (in vivo; both sexes, beagle, 20 mg/kg): 11.3 ng/mL
Plasma concentration of EX-1/NHC/CH2018 (in vivo; both, Beagle, 20 mg/kg, 6 hr): 401 ng/mL
Plasma concentration of EX-1/NHC/CH2018 (in vivo; both, Beagle, 20 mg/kg, 8 hr): 138 ng/mL
Plasma concentration of EX-1/NHC/CH2018 (in vivo; both, Beagle, 20 mg/kg, 24 hr): 17.7 ng/mL
AUCmale/female of EX-1/NHC/CH2018 (in vivo; both, beagle, 20 mg/kg): 69.2%
AUCmale/female of EX-2/CH2101 (in vivo; both, beagle, 20 mg/kg): 96.1%
Plasma concentration of EX-1/NHC/CH2018 (in vivo; both, beagle, 20 mg/kg, 0.083 hr): 148 ng/mL
Plasma concentration of EX-1/NHC/CH2018 (in vivo; both, beagle, 20 mg/kg, 0.25 hr): 2014 ng/mL
Plasma concentration of EX-1/NHC/CH2018 (in vivo; both, beagle, 20 mg/kg, 0.5 hr): 3703 ng/mL
Plasma concentration of EX-1/NHC/CH2018 (in vivo; both, beagle, 20 mg/kg, 1 hr): 6118 ng/mL
Plasma concentration of EX-1/NHC/CH2018 (in vivo; both, beagle, 20 mg/kg, 2 hr): 5958 ng/mL
Plasma concentration of EX-1/NHC/CH2018 (in vivo; both, beagle, 20 mg/kg, 4 hr): 1600 ng/mL
AUC(0-t) (in vivo; female, Beagle, 20 mg/kg): 5.54 ng·h/mL
Cmax (in vivo; female, Beagle, 20 mg/kg): 13 ng/mL
Tmax (in vivo; female, Beagle, 20 mg/kg): 15 min
Cmax of EX-2/CH2101 (in vivo; female, beagle, 10 mg/kg): 14.0 ng/mL
Tmax of EX-2/CH2101 (in vivo; female, beagle, 10 mg/kg): 1.00 h
Cmax (in vivo; female, beagle, 10 mg/kg): 12.2 ng/mL
concentration at 0.25 hr (in vivo; female, beagle, 10 mg/kg): 14 ng/mL
concentration at 1 hr (in vivo; female, beagle, 10 mg/kg): 12.2 ng/mL
concentration at 0.25 hr (in vivo; female, beagle, 20 mg/kg): 13 ng/mL
concentration at 1 hr (in vivo; female, beagle, 20 mg/kg): 11.3 ng/mL
AUC(0-t) (in vivo; male, Beagle, 20 mg/kg): 5.32 ng·h/mL
Cmax (in vivo; male, Beagle, 20 mg/kg): 12.5 ng/mL
Tmax (in vivo; male, Beagle, 20 mg/kg): 15 min
AUC(0-t) (in vivo; male, beagle, 10 mg/kg): 5.07 ng·h/mL
Cmax (in vivo; male, beagle, 10 mg/kg): 17.9 ng/mL
concentration at 0.25 hr (in vivo; male, beagle, 10 mg/kg): 17.9 ng/mL
concentration at 0.5 hr (in vivo; male, beagle, 10 mg/kg): 10.7 ng/mL
Tmax (in vivo; male, beagle, 10 mg/kg): 15 min
concentration at 0.083 hr (in vivo; male, beagle, 20 mg/kg): 11.2 ng/mL
concentration at 0.25 hr (in vivo; male, beagle, 20 mg/kg): 12.5 ng/mL
concentration at 0.5 hr (in vivo; male, beagle, 20 mg/kg): 10.5 ng/mL
half-life at 1 µM (Microsome stability): 50.8 min
Survival proportions ([3]; 14-day study, twice daily days 0-6, CH2101 450 mg/kg PO, Remdesivir 25 mg/kg SC): 100%
Antiviral efficacy in vivo (conclusion) ([3]; 450 mpk PO twice daily): optimal antiviral efficacy in vivo
Clinical symptoms (observation) ([3]; CH2101 450 mpk PO twice daily days 0-6): no infection-related clinical symptom was observed
Body weights (observation) ([3]; EX-2/CH2101 450 mpk PO twice daily days 0-6): without notable body weight loss observed
Virus titer in lung ([3]; day 5, plaque assay, mean, twice daily days 0-4, CH2101 450 mpk PO, Remdesivir 25 mpk SC): 2.64 Log 10 plaque#/g lung
Virus titer in lung, mean difference vs. group 1 (Vehicle group) ([3]; day 5, CH2101 450 mpk PO, Remdesivir 25 mpk SC): 3.31 Log
Median survival time ([3]; twice daily days 0-6, CH2101 450 mg/kg PO, Remdesivir 25 mg/kg SC): Undefined
CC50 at 4 days (in vitro [4]): 18.2 µM
